Three compounds from patent US20230210108A1, “ANTIMICROBIAL COATING FOR POLYMERIC FOOD PACKAGING” (VACOPAK INDUSTRIES LTD., priority 2020, published 2023) can be followed below.

Assay [1] concerns Gram-negative bacteria E. Coli. Put plainly: Antimicrobial activity of coatings on PET surfaces against Gram-negative bacteria (CFU count). As to conditions: agent 5 mg/ml embedded in chitosan or alginate matrix, coated on PET; FIG. 5A. The class given is cell-based. The protocol:
(§1) Air plasma was applied onto each surface for three (3) minutes prior to coating. The surfaces used in the Examples were polyethylene (PET) sheets. The coating composition was prepared by suspending polymer(s) in water together with the antimicrobial agent(s). The coating composition was then applied on the surface, forming a layer of about 25 µm, using BIUGED and BGD219 instruments in a speed of 6 mm/sec, as shown in FIG. 4. Each coating composition was prepared a few hours, or about 24 hours prior to being applied on the surface. The antimicrobial activity of several coatings was tested against Gram-negative bacteria E. Coli and Gram-positive bacteria Listeria (FIGS. 5A and 5B, respectively, n=3 per each test). Each test was repeated twice (suffix A and B; in FIGS. 5A to 5B).

Assay [2] relates to Gram-positive bacteria Listeria. In words: Antimicrobial activity of coatings on PET surfaces against Gram-positive bacteria (CFU count). The class given is cell-based. The conditions noted are these: agent 5 mg/ml embedded in chitosan or alginate matrix, coated on PET; FIG. 5B. As for the experimental part: as §1

Take `CCCCCCCCCCCC(=O)N[C@@H](CCCN=C(N)N)C(=O)OCC` [lauryl alginate, Lauryl alginate]: in assay [1], the “reduction of bacterial count (CFU)” value was “at least one order of magnitude”. The “reduction of viral count, as measured in colony-forming units (CFU)” value (from here on “reduction of viral count, as measured”) in assay [2] is on record as “at least one order of magnitude”.

Take Nisin: in assay [2], the “reduction of viral count, as measured” value was “high cytotoxicity”.

Regarding `O=C1O[C@H]([C@@H](O)CO)C(O)=C1O` [ascorbic acid, Ascorbic acid], the “reduction of bacterial count (CFU)” value in assay [1] is “at least one order of magnitude”. Also, in assay [2], the “reduction of viral count, as measured” value is “at least one order of magnitude”.
